Read-outs that look alike come from different tables or passages of the source.
What was measured:
histamine H2 receptor [1] = biological target: T1, histamine H2 receptor (Rattus norvegicus, UniProt P25102); assay: Competition binding assay (displacement of ^3H-tiotidine)
T1 construct: endogenous in cells
From the text: (§1) All test animals were used in accordance with the National Institutes of Health Guidelines for the Care and Use of Laboratory Animals and Permission for Use of Laboratory Animals 34401-1/2010/8 and U34401-12/2013/3 issued by the Administration of the Republic of Slovenia for Food Safety, Veterinary and Plant Protection to prepare primary astrocytes cultures from newborn not-treated rat. 3 day old rats were sacrificed by decapitation, followed by removing the brain cortices. Primary cultures of astrocytes were prepared and cultured as previously described. Cells were grown in high-glucose Dulbecco's modified Eagle's medium (DMEM), containing 10% fetal bovine serum (FBS), 1 mM pyruvate, 2 mM glutamine, and 25 μg/ml gentamycin in 95% air-5% CO2. Confluent cultures were shaken at 225 rpm overnight and the medium was changed the next morning; this was repeated a total of three times. After the third overnight shaking, the cells were trypsinized and cultured for 24 h in 10 μM cytosine arabinoside. After reaching confluence again the cells were subcultured into 12-well clusters and grown until becoming confluent again. The confluent cells were detached, washed twice in PBS, and cell sediment was stored at –70°C until used for the binding assay.
In the competition binding experiments, astrocyte cells were incubated together in the presence of different histaminergic ligands in the concentration range from 0.01 nM– 100 μM under the same incubation conditions as above. The concentration of ^3H-tiotidine used was 5 nM. The binding reaction was rapidly terminated and the bound ligand was separated from the unbound by vacuum filtration. The radioactivity trapped on the GF/C glass fiber filters was counted in a liquid scintillation counter (Microbeta, Perkin Elmer, USA).
(§2) The binding experiments were routinely carried out in triplicate and each experiment was repeated at least twice. The results are expressed as means ± SEM. The binding parameters (KD, Bmax, and IC50) were calculated by a non-linear regression method using software Prism6 version 6.00, GraphPad Software Inc. (San Diego, USA). A comparison of the data among the groups was carried out using Student`s unpaired t-test with Welch correction, where two groups of data were compared. Differences were considered significant at p < 0.05.

histamine H2 receptor [2] = biological target: T1, histamine H2 receptor; assay: ^3H-tiotidine saturation binding assay; settings: cultured neonatal rat astrocytes; for Kd: read-out: equilibrium dissociation constant (KD)
From the text: as §1
0.1 mg of astrocyte cell protein was incubated for 15 minutes at 25°C in 0.15M Na^+/K^+ -phosphate buffer (pH 7.4) or in 0.15M Na^+/K^+ -phosphate buffer made using D2O instead of miliQ water (pH 7.4) in a total volume of 0.25 mL with the indicated concentrations of ^3H-tiotidine (1–15 nM), with a specific activity of 82.2 Ci/mmol. Specific binding represented the difference between total and non-specific binding (binding in the presence of 1 μM cimetidine).
as §2

[3] = MP2/6–31++G(2d,2p) and Langevin dipole calculated value; cited from earlier work
[4] = regular phosphate buffer (control)

T1 sequence (P25102 whole entry): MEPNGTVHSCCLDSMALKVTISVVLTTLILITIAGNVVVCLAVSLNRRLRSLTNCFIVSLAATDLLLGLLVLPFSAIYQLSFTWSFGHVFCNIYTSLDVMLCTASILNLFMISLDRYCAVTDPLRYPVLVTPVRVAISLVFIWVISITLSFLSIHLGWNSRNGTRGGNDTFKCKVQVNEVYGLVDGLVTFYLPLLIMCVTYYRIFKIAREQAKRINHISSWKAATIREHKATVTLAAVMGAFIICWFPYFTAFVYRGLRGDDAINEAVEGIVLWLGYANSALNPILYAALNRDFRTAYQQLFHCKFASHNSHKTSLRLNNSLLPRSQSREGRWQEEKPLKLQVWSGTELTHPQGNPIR

`Cc1ncc(CCN)[nH]1` [2-methylhistamine] gave an IC50 (histamine H2 receptor [1]) of 4.17 nM.
In the case of `CN=C(NC#N)NCCSCc1csc(N=C(N)N)n1` [^3H-tiotidine], the “maximal binding capacity (Bmax)” value (histamine H2 receptor [2]; deuterated medium (D2O)) is reported as 17.1 ± 2.7 fmol/mg protein, the Kd (histamine H2 receptor [2]; deuterated medium (D2O)) is reported as 7.4 ± 2.4 nM and the “maximal binding capacity (Bmax)” value (histamine H2 receptor [2]; [4]) is reported as 18.6 ± 1.7 fmol/mg protein. The Kd (histamine H2 receptor [2]; [4]) was 4.7 ± 1 nM.
In the case of `NCCc1c[nH]cn1` [deuterated histamine], the IC50 (histamine H2 receptor [1]; deuterated (D), read-out: reported measured value (ligand binding constant)) is reported as 16 nM.
For `[2H]N([2H])CCc1cn([2H])cn1` [deuterated histamine], the binding free energy (histamine H2 receptor [1]; deuterated (D), from measured value 16 nM) was “–10.59 kcal/mol”.
For `NCCc1c[nH]cn1` [histamine], the hydration free energy [3] is listed as “–68.6 kcal mol^–1”, the binding free energy (histamine H2 receptor [1]; control (H), from measured value 56 nM) is listed as “–9.86 kcal/mol” and the IC50 (histamine H2 receptor [1]; control (H), read-out: reported measured value (ligand binding constant)) is listed as 56 nM. The “ΔEINTER(exp) ΔΔE(H2O–D2O); experimental difference in binding free energy upon deuteration” value (histamine H2 receptor [1]; ΔGBIND(H→D) = −RT ln(KD/KH)) was 0.73 kcal mol^–1.

Source: PMC4861267 (PLoS ONE, 2016)
